# Results: patent US20170190671A1, “BIS(ARYL)CATECHOL DERIVATIVES AS HERBICIDES” (E I DU PONT DE NEMOURS AND COMPANY, priority 2014, published 2017)
# Legend:
# Experiment in all cases: Test C preemergence
# Format in all cases: in vivo
# [1] = test system: winter wheat (Triticum aestivum); conditions: Triticum aestivum, pre-emergence, 336 h, scale 0 to 100, read-out: Plant response rating, Wheat
# Procedure, shortened: (§1)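 Treatment is preemergence to seeds in a loam and sand soil, or postemergence to plants 2 to 18 cm high in a peat moss-based medium. The compound is delivered in a non-phytotoxic solvent mixture including surfactant. Effects are judged by eye 13 to 15 days later on a 0 to 100 scale.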
# soybean (Glycine max) = conditions: Glycine max, pre-emergence, preemergence, scale 0 to 100, read-out: Plant response rating, Soybean
# Procedure, shortened: as §1
# corn (Zea mays) = conditions: Zea mays, pre-emergence, 336 h, scale 0 to 100
# Procedure, shortened: as §1
# [2] = test system: lambsquarters (Chenopodium album); conditions: Chenopodium album, pre-emergence, 336 h, scale 0 to 100, read-out: Plant response rating, Lambsquarters
# Procedure, shortened: as §1
# [3] = test system: velvetleaf (Abutilon theophrasti); conditions: Abutilon theophrasti, pre-emergence, scale 0 to 100, read-out: Plant response rating, Velvetleaf
# Procedure, shortened: as §1
# [4] = test system: pigweed (Amaranthus retroflexus); conditions: Amaranthus retroflexus, pre-emergence, 336 h, scale 0 to 100, read-out: Plant response rating, Pigweed
# Procedure, shortened: as §1
# [5] = test system: Italian ryegrass (Lolium multiflorum); conditions: Lolium multiflorum, pre-emergence, 336 h, scale 0 to 100, read-out: Plant response rating, Ryegrass, Italian
# Procedure, shortened: as §1
# [6] = test system: johnsongrass (Sorghum halepense); conditions: Sorghum halepense, pre-emergence, 336 h, scale 0 to 100, read-out: Plant response rating, Johnsongrass
# Procedure, shortened: as §1
# [7] = test system: large (Lg) crabgrass (Digitaria sanguinalis); conditions: Digitaria sanguinalis, pre-emergence, 336 h, scale 0 to 100, read-out: Plant response rating, Crabgrass, Large
# Procedure, shortened: as §1
# [8] = test system: waterhemp (common waterhemp, Amaranthus rudis); conditions: Amaranthus tuberculatus, pre-emergence, scale 0 to 100, read-out: Plant response rating, Waterhemp
# Procedure, shortened: as §1
# [9] = test system: galium (catchweed bedstraw, Galium aparine); conditions: Galium, pre-emergence, 336 h, preemergence, scale 0 to 100, read-out: Plant response rating, Galium
# Procedure, shortened: as §1
# [10] = test system: morningglory (Ipomoea coccinea); conditions: Ipomoea, pre-emergence, 336 h, scale 0 to 100, read-out: Plant response rating, Morningglory
# Procedure, shortened: as §1
# [11] = test system: barnyardgrass (Echinochloa crus-galli); conditions: Echinochloa crus-galli, pre-emergence, read-out: Plant response rating, Barnyardgrass
# Procedure, shortened: as §1
# [12] = test system: giant foxtail (Setaria faberii); conditions: Setaria faberi, pre-emergence, 336 h, scale 0 to 100, read-out: Plant response rating, Foxtail, Giant
# Procedure, shortened: as §1
# [13] = test system: ragweed (common ragweed, Ambrosia elatior); conditions: Ambrosia artemisiifolia, pre-emergence, 336 h, preemergence, scale 0 to 100, read-out: Plant response rating, Ragweed
# Procedure, shortened: as §1
compound,measurement,setting,value
"N#Cc1cccc(Oc2ncc(Br)cn2)c1Oc1ncc(Cl)cn1 [Compound 5, 3-[(5-bromo-2-pyrimidinyl)oxy]-2-[(5-chloro-2-pyrimidinyl)oxy]benzonitrile]",plant injury at 31 g/ha,"[1]; 31 g ai/ha, preemergence",0%
same,plant injury at 62 g/ha,"[1]; 62 g ai/ha, preemergence",5%
same,plant injury at 125 g/ha,"[1]; 125 g ai/ha, preemergence",35%
same,plant injury at 16 g/ha,"[1]; Preemergence, 16 g ai/ha",0%
same,plant injury at 31 g/ha,soybean (Glycine max); 31 g ai/ha,45%
same,plant injury at 62 g/ha,soybean (Glycine max); 62 g ai/ha,65%
same,plant injury at 125 g/ha,soybean (Glycine max); 125 g ai/ha,85%
same,"Corn plant response rating (crop injury, 0 = no effect, 100 = complete kill) at 31 g/ha","corn (Zea mays); 31 g ai/ha, preemergence",25%
same,"Corn plant response rating (crop injury, 0 = no effect, 100 = complete kill) at 62 g/ha","corn (Zea mays); 62 g ai/ha, preemergence",60%
same,"Corn plant response rating (crop injury, 0 = no effect, 100 = complete kill) at 125 g/ha","corn (Zea mays); 125 g ai/ha, preemergence",75%
same,"Corn plant response rating (crop injury, 0 = no effect, 100 = complete kill) at 16 g/ha","corn (Zea mays); Preemergence, 16 g ai/ha",5%
same,pest or weed control at 31 g/ha,"[2]; 31 g ai/ha, preemergence",100%
same,pest or weed control at 62 g/ha,"[2]; 62 g ai/ha, preemergence",100%
same,pest or weed control at 125 g/ha,"[2]; 125 g ai/ha, preemergence",100%
same,pest or weed control at 16 g/ha,"[2]; Preemergence, 16 g ai/ha",80%
same,pest or weed control at 31 g/ha,"[3]; 31 g ai/ha, preemergence",90%
same,pest or weed control at 62 g/ha,"[3]; 62 g ai/ha, preemergence",100%
same,pest or weed control at 125 g/ha,"[3]; 125 g ai/ha, preemergence",100%
same,pest or weed control at 16 g/ha,"[3]; Preemergence, 16 g ai/ha",60%
same,pest or weed control at 31 g/ha,"[4]; 31 g ai/ha, preemergence",100%
same,pest or weed control at 62 g/ha,"[4]; 62 g ai/ha, preemergence",100%
same,pest or weed control at 125 g/ha,"[4]; 125 g ai/ha, preemergence",100%
same,pest or weed control at 16 g/ha,"[4]; Preemergence, 16 g ai/ha",100%
same,pest or weed control at 31 g/ha,"[5]; 31 g ai/ha, preemergence",5%
same,pest or weed control at 62 g/ha,"[5]; 62 g ai/ha, preemergence",55%
same,pest or weed control at 125 g/ha,"[5]; 125 g ai/ha, preemergence",60%
same,pest or weed control at 16 g/ha,"[5]; Preemergence, 16 g ai/ha",0%
same,pest or weed control at 31 g/ha,"[6]; 31 g ai/ha, preemergence",40%
same,pest or weed control at 62 g/ha,"[6]; 62 g ai/ha, preemergence",70%
same,pest or weed control at 125 g/ha,"[6]; 125 g ai/ha, preemergence",80%
same,pest or weed control at 16 g/ha,"[6]; Preemergence, 16 g ai/ha",0%
same,pest or weed control at 31 g/ha,"[7]; 31 g ai/ha, preemergence",98%
same,pest or weed control at 62 g/ha,"[7]; 62 g ai/ha, preemergence",100%
same,pest or weed control at 125 g/ha,"[7]; 125 g ai/ha, preemergence",100%
same,pest or weed control at 16 g/ha,"[7]; Preemergence, 16 g ai/ha",70%
same,pest or weed control at 31 g/ha,"[8]; 31 g ai/ha, preemergence",100%
same,pest or weed control at 62 g/ha,"[8]; 62 g ai/ha, preemergence",100%
same,pest or weed control at 125 g/ha,"[8]; 125 g ai/ha, preemergence",100%
same,pest or weed control at 16 g/ha,"[8]; Preemergence, 16 g ai/ha",85%
same,pest or weed control at 31 g/ha,[9]; 31 g ai/ha,50%
same,pest or weed control at 62 g/ha,[9]; 62 g ai/ha,100%
same,pest or weed control at 125 g/ha,[9]; 125 g ai/ha,100%
same,pest or weed control at 31 g/ha,"[10]; 31 g ai/ha, preemergence",60%
same,pest or weed control at 62 g/ha,"[10]; 62 g ai/ha, preemergence",80%
same,pest or weed control at 125 g/ha,"[10]; 125 g ai/ha, preemergence",95%
same,pest or weed control at 16 g/ha,"[10]; Preemergence, 16 g ai/ha",30%
same,pest or weed control at 31 g/ha,"[11]; 31 g ai/ha, preemergence, scale 0 to 100",60%
same,pest or weed control at 62 g/ha,"[11]; 62 g ai/ha, preemergence, scale 0 to 100",85%
same,pest or weed control at 125 g/ha,"[11]; 125 g ai/ha, preemergence, scale 0 to 100",98%
same,pest or weed control at 16 g/ha,"[11]; Preemergence, 16 g ai/ha, scale 0 to 100 (0 no effect, 100 complete control)",20%
same,pest or weed control at 31 g/ha,"[12]; 31 g ai/ha, preemergence",80%
same,pest or weed control at 62 g/ha,"[12]; 62 g ai/ha, preemergence",100%
same,pest or weed control at 125 g/ha,"[12]; 125 g ai/ha, preemergence",100%
same,pest or weed control at 16 g/ha,"[12]; Preemergence, 16 g ai/ha",30%
same,pest or weed control at 31 g/ha,[13]; 31 g ai/ha,20%
same,pest or weed control at 62 g/ha,[13]; 62 g ai/ha,80%
same,pest or weed control at 125 g/ha,[13]; 125 g ai/ha,100%
